# Data as given in US20150175585A1, “FUSED QUINONIC COMPOUNDS” (CENTRO ATLANTICO DEL MEDICAMENTO S.A (CEAMED, S.A.), priority 2012, published 2015).
# Test system: STAT5
# Experiment: Epo induced STAT5 phosphorylation in HEL cells (Western immunoblotting)
# Type: cell-based, human
# Settings: serum deprived HEL cells; 5 μM for 0.5-3 h or 0.5-10 μM for 3 h; Epo 10 units/ml 5 min
# Method: FIG. 1. • A) Overnight serum deprived HEL cells were stimulated with Epo (10 units/ml) for 5, 10, 20, 30, 45 and 60 min. JAK2, pYJAK2, STAT5 and pYSTAT5 were detected using Western immunoblotting as described in methods. B) Overnight serum deprived HEL cells were pre-incubated with compound 4 (C4) (5 μM) for 0.5, 1, 2, and 3 h, and subsequently stimulated with 10 units/ml Epo for 5 min. JAK2, pYJAK2, STAT5 and pYSTAT5 were detected using Western immunoblotting as described in methods. C) Overnight serum deprived HEL cells were pre-incubated with C4 at increasing concentrations (0.5-10 μM) for 3 h, and subsequently stimulated with 10 units/ml Epo for 5 min. JAK2, pJAK2, STAT5 and pSTAT5 were detected using Western immunoblotting as described in methods. […]
# For total protein extraction, cells were scraped with RIPA 1× lysis buffer (25 mM Tris-HCl pH 7.6, 150 mM NaCl, 1% NP-40, 1% sodium deoxycholate, 0.1% SDS, no. 89900, Thermo Scientific, Rockford, Ill., USA) supplemented with 1× protease and 1× phosphatase inhibitor cocktails (100× Halt™ Protease Inhibitor Cocktail, no. 87786 and 100× Halt™ Phosphatase Inhibitor Cocktail, no. 78420, both from Thermo Scientific, Rockford, Ill., USA). An aliquot of each extract was preserved for protein quantification by bicinchoninic acid assay (Pierce® BCA Protein Assay Kit, no. 23225, Thermo Scientific, Rockford, Ill., USA). […]
structure (smiles),measurement,value
"N#Cc1ccc(C2C3=C(CCCC3=O)OC3=C2C(=O)c2ccccc2C3=O)cc1 (stereo not shown) [Compound 4, 4-(1,6,11-trioxo-2,3,4,6,11,12-hexahydro-1H-benzo[b]xanthen-12-yl)benzonitrile]",Epo-induced phosphorylation of STAT5,"inhibits, in a time/dose dependent manner"
